Results as given in ChEMBL document CHEMBL1667830, “Non-oxime inhibitors of B-Raf(V600E) kinase” (Bioorg Med Chem Lett, 2011).

Legend:
[1] = molecular target: Serine/threonine-protein kinase B-raf (Homo sapiens, UniProt P15056, V600E); test: Inhibition of B-Raf V600E mutant
[2] = Permeability across human Caco2 cells; format: ADME, cell-based; conditions: Caco-2, read-out: permeability
[3] = AUC (0 to infinity) in mouse at 25 mg/kg, po; format: ADME, organism-based; set-up: time infinity, dose 25 mg/kg, route oral; conditions: plasma
[4] = Cmax in mouse at 25 mg/kg, po; format: ADME, organism-based; set-up: dose 25 mg/kg, route oral; conditions: in vivo

Sequence of Serine/threonine-protein kinase B-raf (P15056 2-766 V600E limits assumed): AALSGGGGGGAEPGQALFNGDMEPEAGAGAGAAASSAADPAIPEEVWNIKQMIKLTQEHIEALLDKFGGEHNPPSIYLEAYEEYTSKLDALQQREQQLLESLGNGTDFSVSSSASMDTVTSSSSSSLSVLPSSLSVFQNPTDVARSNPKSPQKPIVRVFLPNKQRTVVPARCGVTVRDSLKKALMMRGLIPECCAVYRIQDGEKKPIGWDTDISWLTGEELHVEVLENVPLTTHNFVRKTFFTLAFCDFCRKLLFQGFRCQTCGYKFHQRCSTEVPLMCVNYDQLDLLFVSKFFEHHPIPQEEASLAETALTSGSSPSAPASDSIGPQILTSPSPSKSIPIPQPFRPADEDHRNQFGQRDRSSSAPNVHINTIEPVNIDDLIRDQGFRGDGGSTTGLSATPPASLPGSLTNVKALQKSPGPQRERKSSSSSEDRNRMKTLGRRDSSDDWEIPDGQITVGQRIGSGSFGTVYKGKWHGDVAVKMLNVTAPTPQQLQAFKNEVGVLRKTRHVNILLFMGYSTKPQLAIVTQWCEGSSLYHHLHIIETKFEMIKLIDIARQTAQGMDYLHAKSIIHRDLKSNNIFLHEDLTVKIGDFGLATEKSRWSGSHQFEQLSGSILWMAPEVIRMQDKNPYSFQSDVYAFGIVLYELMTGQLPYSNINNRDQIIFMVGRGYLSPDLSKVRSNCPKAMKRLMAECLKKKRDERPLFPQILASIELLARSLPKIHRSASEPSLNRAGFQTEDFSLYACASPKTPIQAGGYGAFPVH

| SMILES | IC50 [1] | also measured |
| --- | --- | --- |
| Cc1cc(Nc2c(-c3ncccn3)oc3cnccc23)c2cn[nH]c2c1Cl | 0.3 nM |  |
| c1cnc(-c2oc3cnccc3c2Nc2cccc3[nH]ncc23)nc1 | 14 nM |  |
| Cc1ccc(Nc2c(-c3ncccn3)oc3cnccc23)c2cn[nH]c12 | 2.4 nM |  |
| Clc1ccc(Nc2c(-c3ncccn3)oc3cnccc23)c2cn[nH]c12 | 4.2 nM | Papp [2]: < 2 ×10⁻⁶ cm/s |
| CC(C)NC(=O)c1oc2cnccc2c1Nc1ccc2c(c1)Cc1c[nH]nc1-2 | 38 nM |  |
| CN/C=C/NC(=O)c1oc2cnccc2c1Nc1ccc2c(c1)Cc1c[nH]nc1-2 | 42.9 nM |  |
| O=C1CCc2cc(Nc3c(-c4ncccn4)oc4cnccc34)ccc21 | 16 nM |  |
| Fc1ccc(Nc2c(-c3ncccn3)oc3cnccc23)c2cn[nH]c12 | 2 nM |  |
| CCc1n[nH]c2c(Cl)ccc(Nc3c(-c4ncccn4)oc4cnccc34)c12 | 0.8 nM |  |
| CC(C)NC(=O)c1oc2cnccc2c1Nc1ccc(Cl)c(O)c1 | 4 nM |  |
| CN1CCN(Cc2cnc(-c3oc4cnccc4c3Nc3ccc4c(O)cccc4c3)nc2)CC1 | 2 nM |  |
| NCCCc1n[nH]c2c(Cl)ccc(Nc3c(-c4ncccn4)oc4cnccc34)c12 | 4.3 nM |  |
| CC(C)NC(=O)c1oc2cnccc2c1Nc1ccc(Cl)c2[nH]ncc12 | 2.7 nM |  |
| O=C(Nc1ncccn1)c1oc2cnccc2c1Nc1ccc(Cl)c(O)c1 | 1.6 nM |  |
| Clc1ccc2[nH]ncc2c1Nc1c(-c2ncccn2)oc2cnccc12 | 240 nM | AUC(0-inf) [3]: 17000 ng·h/mL; Cmax [4]: 3730 ng/mL; Papp [2]: 2 ×10⁻⁶ cm/s |
| OCCCc1n[nH]c2c(Cl)ccc(Nc3c(-c4ncccn4)oc4cnccc34)c12 | 0.8 nM |  |
| Clc1cc(Nc2c(-c3ncccn3)oc3cnccc23)c2cn[nH]c2c1 | 5.7 nM |  |
| c1cnc(-c2oc3cnccc3c2Nc2ccc3c(c2)Cc2c[nH]nc2-3)nc1 | 4 nM | AUC(0-inf) [3]: 10400 ng·h/mL; Cmax [4]: 2220 ng/mL; Papp [2]: > 8 ×10⁻⁶ cm/s |
| O/N=C1\NCc2cc(Nc3c(-c4ncccn4)oc4cnccc34)ccc21 | 0.5 nM |  |
| CC(C)NC(=O)c1oc2cnccc2c1Nc1ccc2c(c1)CN/C2=N\O | 5.2 nM |  |

The next lines start with results.

| IC50 [1] | SMILES | also measured |
| --- | --- | --- |
| 30 nM | CCOC(=O)c1oc2cnccc2c1Nc1cnc2ccccc2c1 |  |
| 2.3 nM | CCOC(=O)c1oc2cnccc2c1Nc1ccc(Cl)c(O)c1 |  |
| 1.4 nM | CC(C)NC(=O)c1oc2cnccc2c1Nc1ccc2c(O)cccc2c1 |  |
| 52 nM | CCOC(=O)c1oc2cnccc2c1Nc1ccc2c(N)cccc2c1 |  |
| 1.1 nM | CCOC(=O)c1oc2cnccc2c1Nc1ccc2c(O)cccc2c1 |  |
| 5 nM | CN(C)/C=C/NC(=O)c1oc2cnccc2c1Nc1ccc2c(O)cccc2c1 |  |
| 3 nM | CCOC(=O)c1oc2cnccc2c1Nc1ccc2c(O)c(F)ccc2c1 |  |
| 93 nM | CCOC(=O)c1oc2cnccc2c1Nc1ccc2c(c1)CCC2=O |  |
| < 2 nM | CCOC(=O)c1oc2cnccc2c1Nc1ccc2c(c1)CC/C2=N/O |  |
| 179 nM | CCOC(=O)c1oc2cnccc2c1Nc1ccc2ccccc2c1 |  |
| 1 nM | Oc1cccc2cc(Nc3c(-c4ncccn4)oc4cnccc34)ccc12 |  |
